Laboratory results published in ChEMBL document CHEMBL5331099, “Chemical scaffold recycling: Structure-guided conversion of an HIV integrase inhibitor into a potent influenza virus RNA-dependent RNA polymerase inhibitor designed to minimize resistance potential” (Eur J Med Chem, 2023).

assay: Inhibition of Influenza A virus A/California/04/2009 (H1N1) N-terminal his tagged domain of PA endonuclease expressed in Escherichia coli BL21 (DE3) cells preincubated with enzyme for 1 hr followed by RNA addition and measured after 90 mins by MALDI-FTICR-MS analysis

| SMILES | IC50 |
| --- | --- |
| COc1cnccc1CCNC(=O)c1nc(-c2c(F)cccc2F)[nH]c(=O)c1O | 1110 nM |
| COc1cnccc1CCNC(=O)c1nc(C(C)(C)NC(=O)OCc2ccccc2)[nH]c(=O)c1O | 1970 nM |
| COc1cc(CCNC(=O)c2nc(-c3ccccc3C(F)(F)F)[nH]c(=O)c2O)ccc1O | 270 nM |
| Nc1ncnc2c1ncn2CCNC(=O)c1nc(-c2ccccc2C(F)(F)F)[nH]c(=O)c1O | 290 nM |
| COc1cc(CCNC(=O)c2nc(C(C)(C)NC(=O)OCc3ccccc3)[nH]c(=O)c2O)ccc1O | 620 nM |
| COc1cnccc1CCNC(=O)c1nc(-c2ccccc2F)[nH]c(=O)c1O | 820 nM |
| Cc1nnc(C(=O)NC(C)(C)c2nc(C(=O)NCc3ccc(F)cc3)c(O)c(=O)n2C)o1 [RALTEGRAVIR] | > 20000 nM |
| CC(C)(NC(=O)OCc1ccccc1)c1nc(C(=O)NCc2ccc(F)cc2)c(O)c(=O)[nH]1 | > 20000 nM |
| COc1cnccc1CCNC(=O)c1nc(-c2ccccc2C(F)(F)F)[nH]c(=O)c1O | 420 nM |
| COc1cnccc1CCNC(=O)c1nc(-c2ccccc2)[nH]c(=O)c1O | 1220 nM |
| COc1cnccc1CCNC(=O)c1nc(-c2ccc(C(F)(F)F)cc2)[nH]c(=O)c1O | > 20000 nM |
| COc1cnccc1CCNC(=O)c1nc(-c2cccc(C(F)(F)F)c2)[nH]c(=O)c1O | 4530 nM |
| O=C1NCCc2cccc(c2)OC/C=C/COc2cccc(c2)-c2nc1c(O)c(=O)[nH]2 | 12500 nM |
| O=C1NCCc2cccc(c2)OC/C=C\COc2cccc(c2)-c2nc1c(O)c(=O)[nH]2 | 4960 nM |
| COc1cnccc1CCNC(=O)c1nc(Cc2ccccc2C(F)(F)F)[nH]c(=O)c1O | > 20000 nM |
| CC(C)(NC(=O)OCc1ccccc1)c1nc(C(=O)NCCn2cnc3c(N)ncnc32)c(O)c(=O)[nH]1 | 1620 nM |
| CC(C)(NC(=O)OCc1ccccc1)c1nc(O)c(O)c(C(=O)NCCc2ccc(F)cc2)n1 | 6450 nM |
| O=C1NCCc2cccc(c2)OCCCCOc2cccc(c2)-c2nc1c(O)c(=O)[nH]2 | > 20000 nM |
| COc1cnccc1CCNC(=O)c1nc(-c2ccccc2C)[nH]c(=O)c1O | 390 nM |
| O=C1c2c(O)c(=O)ccn2N([C@@H]2c3ccccc3SCc3c2ccc(F)c3F)C2COCCN12 (stereo partly drawn) | 50 nM |

assay: Binding affinity to Influenza A virus A/California/04/2009 (H1N1) wild type N-terminal his tagged domain of PA endonuclease expressed in Escherichia coli BL21 (DE3) cells assessed as dissociation constant by MST assay

| SMILES | Kd |
| --- | --- |
| Nc1ncnc2c1ncn2CCNC(=O)c1nc(-c2ccccc2C(F)(F)F)[nH]c(=O)c1O | 18 nM |
| COc1cnccc1CCNC(=O)c1nc(-c2ccccc2C(F)(F)F)[nH]c(=O)c1O | 54 nM |
| O=C1c2c(O)c(=O)ccn2N([C@@H]2c3ccccc3SCc3c2ccc(F)c3F)C2COCCN12 (stereo partly drawn) | 6 nM |
